Measurements as given in patent US5180742A, “Quinone derivatives, their production and use” (Takeda Chemical Industries, Ltd., priority 1984, dated 1993).

Assays:
[1] = tested on: Immunoglobulin-G1 mediated bronchoconstriction reaction; assay: Action on immunoglobulin-G1 mediated bronchoconstriction reaction in guinea pigs; format: in vivo, Hartley guinea pigs; settings: Cavia porcellus; 20 mg/kg oral, 1 hour before antigen
Description: Action on the Immunoglobulin-G1 Mediated Bronchoconstriction Reaction in Guinea Pigs
In accordance with the method of Orange and Moore (Orange, R. P. and Moore E. G. , J. Immunol., 116, 392-397, 1976), female and male Hartley guinea pigs weighing about 350 g were sensitized by intraperitoneal application of an emulsion (1 ml) composed of egg albumin (1 mg) and Freund's complete adjuvant (produced by Wako Pure-Chemical Industries, Ltd. of Japan). 3 Weeks after the sensitization, a serum antibody level in the sensitized guinea pigs was measured by means of the 3-hours passive cutaneous anaphylaxis (PCA) reaction in guinea pigs. […] The broncoconstriction reaction resulting from the antigen-antibody reaction was measured in accordance with the Konzett-Rossler method (Konzett, H. and Rossler, R., Naunyn-Schmiedeberg'ss Arch. exp. Path. pharmak., 195, 71-74, 1940). The guinea pigs were fixed on the dorsal position under anesthesia with a urethane (1.5 g/kg given intraperitonealy). An incision was made through the trachea, which was connected to an artificial respirator (manufactured by Harvard Co.) through an endotracheal tube, with a side tube of the endotracheal tube being attached to a brochoconstricting transducer (type 7020, manufactured by Ugobasile Co.). While an air volume per ventilation was adjusted to 5 to 7 ml and an air ventilation rate was controlled at 70 times/min., with a load pressure to the lung set at 10 cm H2 O, the overflown air volume was recorded on Rectigraphy-8S (manufactured by Sanei Sokki Inc. of Japan) through a transducer. After 1 mg/kg of gallamine triethiodide was given intravenously to the animals, 1 mg/kg of antigen, egg albumin dissolved in physiological saline, was applied intravenously to induce a brochoconstriction reaction. The bronchconstriction reaction was recorded for the period of time of 15 minutes. A drug was suspended in 5% gum arabic solution, and given orally 1 hour before the application of the antigen. Percent inhibition of the immunoglobuin G1 mediated bronchoconstriction reaction in guinea pigs are shown below in Table 3.

[2] = tested on: mice of ICR breed; format: in vivo; settings: 1000 mg/kg oral, male ICR mice, 7 days
Source text: Acute Toxicity Test in Mice (Acute Toxicity)
1000 Milligrams per kilogram of each set specimen was applied orally to groups of 5 five-weeks old male mice of ICR breed, and a number of dead animals observed for the 7-days period was counted.

[3] = molecular target: T1, 5-Lipoxygenase (Rattus norvegicus, UniProt P12527); assay: 5-Lipoxygenase inhibitory activity: 5-HETE production in RBL-1 cells (HPLC); format: cell-based, rat (RBL-1, rat basophilic leukemia cells); settings: arachidonic acid + A 23187, 37° C., 20 minutes, read-out: 5-HETE production inhibiting effect (IC50)
T1 construct: endogenous in cells; host or cells: RBL-1 (rat basophilic leukemia cells)
T1 sequence (P12527 1-673): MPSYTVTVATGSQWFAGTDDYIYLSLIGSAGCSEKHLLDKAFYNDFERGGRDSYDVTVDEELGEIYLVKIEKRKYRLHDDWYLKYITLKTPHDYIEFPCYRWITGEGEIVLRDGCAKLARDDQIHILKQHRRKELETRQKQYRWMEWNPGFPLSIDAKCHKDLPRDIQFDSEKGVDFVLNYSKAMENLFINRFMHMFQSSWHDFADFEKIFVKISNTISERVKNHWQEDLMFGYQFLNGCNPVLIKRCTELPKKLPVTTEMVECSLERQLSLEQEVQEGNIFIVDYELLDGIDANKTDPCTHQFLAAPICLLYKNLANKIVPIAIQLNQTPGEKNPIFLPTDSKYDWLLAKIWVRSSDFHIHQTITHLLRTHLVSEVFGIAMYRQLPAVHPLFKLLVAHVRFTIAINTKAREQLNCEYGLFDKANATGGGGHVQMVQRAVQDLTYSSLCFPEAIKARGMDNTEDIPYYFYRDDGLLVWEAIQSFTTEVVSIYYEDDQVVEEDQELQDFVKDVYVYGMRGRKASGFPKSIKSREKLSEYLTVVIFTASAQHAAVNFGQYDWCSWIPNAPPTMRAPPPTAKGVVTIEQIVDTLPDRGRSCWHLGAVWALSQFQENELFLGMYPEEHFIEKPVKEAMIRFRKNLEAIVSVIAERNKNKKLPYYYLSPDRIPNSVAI
Description: 5-Lipoxygenase Inhibitory Activity
10^7 RBL-1 cells (rat basophilic leukemia cells) were suspended in 0.5 ml of MCM (mast cell medium), and test solutions (made up of 0.5 ml of MCM, 50 μg of arachidonic acid, 10 μg of A 23187 (calcium ionophore, Eli Lilly) and 1 μM, 0.1 μM, 0.01 μM and0.001 μM as the final concentration of the quinone compound, respectively) prepared previously were added respectively to the suspension, followed by reaction at 37° C. for 20 minutes. After the conclusion of the reaction, 4 ml of ethanol and 1,4-dimethoxy-2-methyl-3-(3-methoxypropyl)naphthalene as the internal reference drug were added to the reaction solution, and the mixture was shaken thoroughly and allowed to stand at room temperature for 10 minutes. Then, it was centrifuged (2000 r.p.m.) for 10 minutes, and the supernatant fluid was separated and concentrated to dryness under reduced pressure. 0.5 Milliliter of 60% aqueous methanol was added to the concentrate, and 100 μl of the resulting solution was taken and subjected to high-performance liquid chromatography to determine amount of 5-HETE (5-hydroxyeicosatetraenoic acid). Determination of 5-HETE was made through measurement of an absorption at 237 nm with a UV absorption monitor.
The 5-HETE production inhibitory effect (IE) was expressed by [formula] wherein a is a peak height or peak area corrected by the peak for the internal reference when the quinone compound is not contained; b is a peak height or peak area corrected by the peak for the internal reference when the quinone compound is contained.

[4] = tested on: LTD4-induced bronchoconstriction; assay: Effect on LTD4-induced bronchoconstriction in guinea pigs; format: in vivo
Description: Effect on LTD4 -Induced Brochoconstriction in Guinea Pigs
Bronchoconstriction in guinea pigs was measured by the method of Konzett-Rossler[Naunyn-Schmiedeberg's Arch. exp. Path. Pharmak., 195, 71-74(1940)]. The animals were anesthetized with urethane (1.5 g/kg, intraperitoneally) and the trachea was cannulated. The animals were artificially ventilated by means of a respirator (Harvard apparatus rodent respirator) at a rate of 70 strokes/min and a constant volume of 5-7 ml. Inflation pressure was kept constantly at 10 cm H2 O. Changes in overflow of air from a side-arm of the cannula were recorded on Rectigraph-8S via a bronchospasm transducer for 15 min. LTD4 (10 μg/kg) was given into the […] through an indwelling cannula. Each specimen suspended in a 5% gum arabic solution was also given through the same cannula 1 or 24 hrs before the LTD4 administraction.

[5] = tested on: PAF-induced bronchoconstriction; assay: Effect on PAF-induced bronchoconstriction in guinea pigs; format: in vivo; settings: one hour before PAF
Description: Platelet Activating Factor (PAF)-Induced Bronchoconstriction in Guinea Pigs
Experimental procedure in this experiment was the same as that in LTD4 -induced bronchoconstriction shown in Experimental example 7. PAF is an intraveneous dose of 1 μg/kg was used. Each specimen suspended in a 5% gum arabic solution was given orally one hour before the PAF administration.

[6] = tested on: O2^- production in guinea pigs peritoneal macrophages; assay: Inhibitory effect on O2- production in guinea pig peritoneal macrophages (chemiluminescence); format: cell-based, guinea pig (Hartley); settings: Cavia porcellus, Peritoneal macrophage, 3 experiments
Description: Superoxide (O2^-) Production in Guinea Pig Peritoneal Macrophages
Male Hartley guinea pigs weighing 400-450 g were given intraperitoneally 5 ml of liquid paraffin. Four days later, 15 ml of Hank's buffer were administered into the peritoneal cavity for harvest of peritoneal cells. Macrophages in the peritoneal cells were purified by the method of Wood, P. R. [J. Immunol. Methods, 28, 117-124 (1979)].
The purity of macrophages was more than 95%. The reaction mixture contained 75 μl of macrophages (1×10^7 cells/ml), 5 μl of luminol, 10 μl of phorbol myristate acetate and 10 μl of drugs in a total volume of 100 μl. O2^- Product was assayed by chemiluminescence. Drugs were dissolved in a 10% dimethyl sulfoxide.

[7] = tested on: lipid peroxides production in rat brain homogenates; assay: Inhibitory action on lipid peroxides production in rat brain homogenates (thiobarbituric acid method); format: biochemical, rat (SD); settings: n = 4-6
Description: Inhibitory Action on Lipid Peroxides Production in Rat Brain Homogenates
The male SD rat brain tissue was used as 5% homogenate in phosphate-buffered solution. After incubation of the homogenate for 1 hour at 37° C., the amount of lipid peroxides produced was determined by the thiobarbituric acid method according to the description of Ohkawa et al. (Analytical Biochemistry, 95: 551, 1979)
Test compounds were used as a solution of dimethylsulfoxide. The inhibitory action on lipid peroxide production was expressed as a % inhibition as compared with the amount of production in the vehicle group. Results

COc1ccc(C(CCCCCC(=O)O)C2=C(C)C(=O)C(C)=C(C)C2=O)cc1OC (stereo not shown) [compound 97]
inhibition in vivo at 20 mg/kg [1]: 85%
Acute toxicity (number of dead animals/number of animals used) [2]: 0/5

COC1=C(OC)C(=O)C(C(CCCCCC(=O)O)c2ccc(C)cc2)=C(C)C1=O (stereo not shown) [compound 94]
inhibition in vivo at 20 mg/kg [1]: 81%
Acute toxicity (number of dead animals/number of animals used) [2]: 0/5

CC1=C(C)C(=O)C(C(CCCCCC(=O)O)c2ccc(Cl)cc2)=C(C)C1=O (stereo not shown) [Compound No. 90, 7-(4-chlorophenyl)-7-(3,5,6-trimethyl-1,4-benzoquinon-2-yl)heptanoic acid]
inhibition in vivo at 20 mg/kg [1]: 61%
Acute toxicity (number of dead animals/number of animals used) [2]: 0/5

COc1ccc(C(CCCCCC(=O)O)C2=C(C)C(=O)C(C)=C(C)C2=O)cc1 (stereo not shown) [compound 23]
IC50 [3]: 10 nM
inhibition in vivo at 20 mg/kg [1]: 83%
% Inhibition of LTD4-induced bronchoconstriction ([4]; 0.313 mg/kg, 1 hr. before LTD4): 69%
% Inhibition of LTD4-induced bronchoconstriction ([4]; 1.25 mg/kg, 1 hr. before LTD4): 80%
% Inhibition of LTD4-induced bronchoconstriction ([4]; 5 mg/kg, 1 hr. before LTD4): 68%
% Inhibition of LTD4-induced bronchoconstriction ([4]; 5 mg/kg, 24 hrs. before LTD4): 49%
% Inhibition of PAF-induced bronchoconstriction ([5]; 0.08 mg/kg oral): 75%
% Inhibition of PAF-induced bronchoconstriction ([5]; 0.313 mg/kg oral): 71%
% Inhibition of PAF-induced bronchoconstriction ([5]; 1.25 mg/kg oral): 73%

CC1=C(C(CCCCCC(=O)O)c2ccc(Cl)cc2)C(=O)c2ccccc2C1=O (stereo not shown) [compound 92]
inhibition in vivo at 20 mg/kg [1]: 92%
Acute toxicity (number of dead animals/number of animals used) [2]: 0/5

Cc1c(C)c2c(c(C)c1O)CCC(C)(CCCC(C)CCCC(C)CCCC(C)C)O2 (racemic) [dl-α-tocophenol, reference compound]
inhibition at 100 µM ([6]; 10^-4 M): 11 ± 6%
inhibition at 10 µM ([6]; 10^-5 M): 3 ± 2%

COC1=C(OC)C(=O)C(C(CCCCCC(=O)O)c2ccc(F)cc2)=C(C)C1=O (stereo not shown) [compound 88]
inhibition in vivo at 20 mg/kg [1]: 79%
Acute toxicity (number of dead animals/number of animals used) [2]: 0/5

COc1ccc(C(CCCCC(=O)O)C2=C(C)C(=O)C(C)=C(C)C2=O)cc1 (stereo not shown) [Compound No. 22, 6-(3,5,6-trimethyl-1,4-benzoquinon-2-yl)-6-(4-methoxyphenyl)hexanoicacid]
inhibition in vivo at 20 mg/kg [1]: 82%
% Inhibition of LTD4-induced bronchoconstriction ([4]; 0.313 mg/kg, 1 hr. before LTD4): 39%
% Inhibition of LTD4-induced bronchoconstriction ([4]; 1.25 mg/kg, 1 hr. before LTD4): 85%
% Inhibition of LTD4-induced bronchoconstriction ([4]; 5 mg/kg, 1 hr. before LTD4): 90%
% Inhibition of LTD4-induced bronchoconstriction ([4]; 5 mg/kg, 24 hrs. before LTD4): 24%
% Inhibition of PAF-induced bronchoconstriction ([5]; 0.313 mg/kg oral): 43%
% Inhibition of PAF-induced bronchoconstriction ([5]; 1.25 mg/kg oral): 92%
% Inhibition of PAF-induced bronchoconstriction ([5]; 5 mg/kg oral): 91%

CC1=C(C)C(=O)C(C(CCCCCC(=O)O)c2ccc(C)s2)=C(C)C1=O (stereo not shown) [compound 33]
inhibition in vivo at 20 mg/kg [1]: 75%
Acute toxicity (number of dead animals/number of animals used) [2]: 0/5

CC1=C(C)C(=O)C(C(CCCC(=O)O)c2ccccc2)=C(C)C1=O (stereo not shown) [compound 36]
IC50 [3]: 320 nM
inhibition in vivo at 20 mg/kg [1]: 80%
Acute toxicity (number of dead animals/number of animals used) [2]: 0/5

tocopherol [reference compound]
Inhibition of lipid peroxides production ([7]; 10^-4 M): 46.5 ± 2.5%
Inhibition of lipid peroxides production ([7]; 10^-5 M): 51.8 ± 10.2%
Inhibition of lipid peroxides production ([7]; 10^-6 M): 0%

CC1=C(C)C(=O)C(C(CCCCCC(=O)O)c2ccc(F)cc2)=C(C)C1=O (stereo not shown) [Compound No. 87]
IC50 [3]: 100 nM
inhibition in vivo at 20 mg/kg [1]: 81%
Acute toxicity (number of dead animals/number of animals used) [2]: 0/5
% Inhibition of LTD4-induced bronchoconstriction ([4]; 0.313 mg/kg, 1 hr. before LTD4): 80%
% Inhibition of LTD4-induced bronchoconstriction ([4]; 1.25 mg/kg, 1 hr. before LTD4): 89%
% Inhibition of LTD4-induced bronchoconstriction ([4]; 5 mg/kg, 1 hr. before LTD4): 93%
% Inhibition of LTD4-induced bronchoconstriction ([4]; 5 mg/kg, 24 hrs. before LTD4): 79%
% Inhibition of PAF-induced bronchoconstriction ([5]; 0.08 mg/kg oral): 64%
% Inhibition of PAF-induced bronchoconstriction ([5]; 0.313 mg/kg oral): 48%
% Inhibition of PAF-induced bronchoconstriction ([5]; 1.25 mg/kg oral): 71%

CC1=C(C)C(=O)C(C(CCCCCC(=O)O)c2ccc(C(C)C)cc2)=C(C)C1=O (stereo not shown) [compound 95]
inhibition in vivo at 20 mg/kg [1]: 63%
Acute toxicity (number of dead animals/number of animals used) [2]: 0/5
